The record followed here is patent US6001849A, “Furopyridine, thienopyridine pyrrolopyridine useful in controlling chemical synaptic transmission” (Abbott Laboratories, priority 1997, dated 1999).

Usually inhibition stands for the percentage by which the read-out fell short of the control.

Assay [1] deals with neuronal nicotinic acetylcholine receptors. Briefly: [3H]-cytisine ligand-receptor binding assay (crude synaptic membranes from whole rat brain). The settings on record: for binding to the nicotinic acetylcholine receptor (in words): preferred compounds. On the procedure: For the purpose of identifying compounds as nicotinic acetylcholinergic agents which are capable of interacting with neuronal nicotinic acetylcholine receptors in the brain, a ligand-receptor binding assay was carried out as the initial screen. Compounds of the present invention were effective at interacting with neuronal nicotinic acetylcholine receptors as assayed for their ability to displace radioligand from neuronal nicotinic acetylcholine receptors labeled with [^3 H]-cytisine ([^3 H]-CYT).
A. Protocol For Determination of Nicotinic Acetylcholine Receptor Binding Potencies of Ligands
Binding of [^3 H]-CYT to nicotinic acetylcholine receptors was accomplished using crude synaptic membrane preparations from whole rat brain (Pabreza et al., Molecular Pharmacol., 1990, 39:9). Washed membranes were stored at -80° C. prior to use. Frozen aliquots were slowly thawed and resuspended in 20 volumes of buffer (containing: 120 mM NaCl, 5 mM KCl, 2 mM MgCl2, 2 mM CaCl2 and 50 mM Tris-Cl, pH 7.4 @4° C.). After centrifuging at 20,000×g for 15 minutes, the pellets were resuspended in 30 volumes of buffer. Homogenate (containing 125-150 μg protein) was added to triplicate tubes containing concentrations of test compound and [^3 H]-CYT (1.25 nM) in a final volume of 500 μL. Samples were incubated for 60 minutes at 4° C., then rapidly filtered through Whatman GF/B filters presoaked in 0.5% polyethylimine using 3×4 mL of ice-cold buffer. The filters were counted in 4 mL of Ecolume® (ICN). Nonspecific binding was determined in the presence of 10 μM (-)-nicotine and values were expressed as a percentage of total binding.

In assay [2] the target is T1, α4 and β2 nicotinic acetylcholine subunits (K177 cells) (Homo sapiens, UniProt P17787+P43681).
T1 construct: expressed in transfected cells
Briefly: 86Rb+ efflux assay in K177 cells (HEK 293 stably transfected with α4 and β2 nicotinic acetylcholine subunits). Format: cell-based. On the procedure:
(§1) B. Protocols for the Determination of Functional Effects of Nicotinic Acetylcholine Receptor Ligands on Synaptic Transmission
Cells of the IMR-32 human neuroblastoma clonal cell line (ATCC, Rockville, Md.) were maintained in a log phase of growth according to established procedures (Lukas, R. J., J. Pharmacol. Exp. Ther., 265: 294-302, 1993). Experimental cells were seeded at a density of 500,000 cells/mL into a 24-well tissue culture dish. Plated cells were allowed to proliferate for at least 48 hours before loading with 2 μCi/mL of ^86 Rb^+ (35 Ci/mmol) overnigh at 37° C. The ^86 Rb^+ efflux assays were performed according to previously published protocols (Lukas, 1993) except serum-free Dulbecco's Modified Eagle's Medium was used during the ^86 Rb^+ loading, rinsing, and agonist-induced efflux steps.
Cells of the K177 cell line, resulting from stable transfection of the human embryonic kidney (HEK) 293 cell line with the cDNA of the α4 and β2 nicotinic acetylcholine subunits (Gopalakrishnan, et al, J. Pharmacol. Expt. Ther. 1996, 276, 289-297), were maintained in a log phase of growth according to established procedures (Gopalakrishnan, et al., loc. cit.). The cells were plated onto poly-lysine coated 24-well Costar plates (Cambridge, Mass.) at a density of 250,000 cells/well. When confluent, the cells were loaded with ^86 Rb^+ and agonist-induced efflux was assessed as reported above for IMR-32 cells.
Maximal responses (reported as percent relative to the response elicited by 100 μM (S)-nicotine) are shown for selected compounds of the invention. The inhibition data (given for other selected compounds) reflect inhibition of the efflux elicited by 100 μM (S)-nicotine at the indicated concentration. […] This finding is in agreement with the results of others who have linked dopamine release, which is dependent upon the ion flux in synaptic transmission, to binding at nicotinic receptors (cf., for example, Lippiello and Caldwell, U.S. Pat. No. 5,242,935, issued Sept. 7, 1993; Caldwell and Lippielo, U.S. Pat. No. 5,248,690, issued Sept. 28, 1993; and Wonnacott et al., Prog. Brain Res; 79: 157-163 (1989)).

Assay [3] concerns neuronal nicotinic acetylcholine receptors in IMR-32 cells. As to the kind of experiment: 86Rb+ efflux assay in IMR-32 neuroblastoma cells. Format: cell-based, human. The settings on record: for IMR-32 % max: maximal response, percent relative to 100 μM (S)-nicotine; for IMR-32 % Inhibition @ (30 μM) / IMR-32 % Inhibition @ 10 μM: inhibition of efflux elicited by 100 μM (S)-nicotine. On the procedure: as §1
Experimental cells were seeded at a density of 500,000 cells/mL into a 24-well tissue culture dish. Plated cells were allowed to proliferate for at least 48 hours before loading with 2 μCi/mL of ^86 Rb^+ (35 Ci/mmol) overnigh at 37° C.

[4] abbreviates: Table 1, [3H]-cytisine 1.25 nM, 4° C., 60 min, Ki by Cheng and Prusoff, read-out: [^3 H]-Cyt Binding.
Setting [5] is: K177, Table 1, maximal response, percent relative to 100 μM (S)-nicotine, read-out: K177 % max.
[6] abbreviates: K177, Table 1, inhibition of efflux elicited by 100 μM (S)-nicotine, 10 μM, read-out: K177 % Inhibition @ 10 μM.
The mark [7] stands for this setting: Table 2, [3H]-cytisine binding, read-out: Binding.

pKi: −log10 of the molar value. Counter-ions that a name gives are not always drawn. Like-named read-outs stand apart in the source and are kept apart here.

T1 sequence (P43681 29-627 limits assumed): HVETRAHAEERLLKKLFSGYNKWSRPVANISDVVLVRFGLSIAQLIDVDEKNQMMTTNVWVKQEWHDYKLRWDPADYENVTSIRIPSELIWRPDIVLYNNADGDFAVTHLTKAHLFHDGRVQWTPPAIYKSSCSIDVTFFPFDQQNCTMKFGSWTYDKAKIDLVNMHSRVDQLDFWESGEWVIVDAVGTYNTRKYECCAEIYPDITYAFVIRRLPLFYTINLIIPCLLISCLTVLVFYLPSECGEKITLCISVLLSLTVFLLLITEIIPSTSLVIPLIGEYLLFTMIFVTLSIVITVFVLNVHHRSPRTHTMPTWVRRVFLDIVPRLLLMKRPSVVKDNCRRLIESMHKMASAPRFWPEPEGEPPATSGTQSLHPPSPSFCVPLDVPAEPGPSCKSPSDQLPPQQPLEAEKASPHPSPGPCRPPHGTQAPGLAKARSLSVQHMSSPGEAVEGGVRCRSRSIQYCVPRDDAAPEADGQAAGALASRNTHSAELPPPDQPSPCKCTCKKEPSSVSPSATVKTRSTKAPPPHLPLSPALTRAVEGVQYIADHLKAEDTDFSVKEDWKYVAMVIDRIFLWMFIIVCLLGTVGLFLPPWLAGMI
T1 sequence (P17787 26-502): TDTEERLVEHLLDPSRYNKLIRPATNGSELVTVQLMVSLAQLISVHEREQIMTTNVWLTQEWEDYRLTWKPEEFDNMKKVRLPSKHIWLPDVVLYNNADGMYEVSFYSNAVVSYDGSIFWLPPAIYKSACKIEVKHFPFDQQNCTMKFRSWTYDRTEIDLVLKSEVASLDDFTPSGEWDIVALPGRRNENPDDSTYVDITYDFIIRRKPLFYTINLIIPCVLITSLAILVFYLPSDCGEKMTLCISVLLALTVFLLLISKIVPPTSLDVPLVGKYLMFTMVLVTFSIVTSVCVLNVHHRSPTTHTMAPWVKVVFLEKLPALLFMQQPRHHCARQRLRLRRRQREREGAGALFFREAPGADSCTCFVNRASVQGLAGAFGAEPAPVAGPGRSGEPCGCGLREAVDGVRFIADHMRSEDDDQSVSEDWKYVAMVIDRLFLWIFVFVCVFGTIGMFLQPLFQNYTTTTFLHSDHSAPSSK

Turning to `c1cnc2cc([C@H]3C[C@@H]4CC[C@H]3N4)oc2c1` (relative stereo) [Example 52, (±)-2-(7-aza-2-exo-bicyclo[2.2.1]heptyl)furo[3,2-b]pyridine dihydrochloride], in assay [1] (setting [4]), the pKi is 9.07. Moreover, in assay [2] (setting [5]), the Emax was 36%. For the same compound, the IMR-32 % max in assay [3] (Table 1) was 69%.

As for `CN1CCC[C@H]1c1cc2ncccc2o1.Cl.Cl` [Example 1, 2-(1-methyl-2-(S)-pyrrolidinyl)furo[3,2-b]pyridine dihydrochloride], the pKi in assay [1] (setting [4]) is 8.57. In assay [2] (setting [5]), the Emax was 79%. Besides, in assay [3] (Table 1), the “IMR-32 % Inhibition @ (30 μM)” value amounted to 16% and the IMR-32 % max came out at 7%.

With `Cl.Cl.c1cnc2cc([C@@H]3CCCN3)oc2c1` [Example 2, 2-(2-(S)-pyrrolidinyl)furo[3,2-b]pyridine dihydrochloride], in assay [1] (setting [4]), the pKi is 7.12. Moreover, the Emax in assay [2] (setting [5]) turned out to be 0%. Also, in assay [3] (Table 1), the “IMR-32 % Inhibition @ 10 μM” value is given as 24%.

`Cl.Cl.c1cnc2cc([C@H]3CCCN3)oc2c1` [Example 3, 2-(2-(R)-pyrrolidinyl)furo[3,2-b]pyridine dihydrochloride]: in assay [1] (setting [4]), the pKi is 8.39. In assay [2] (setting [5]), the Emax amounted to 34%. The compound further came in with an IMR-32 % max in assay [3] (Table 1) of 58%.

Consider `CN1CCC[C@@H]1c1cc2ncccc2o1` [Example 4, 2-(1-methyl-2-(R)-pyrrolidinyl)furo[3,2-b]pyridine dihydrochloride], for which, in assay [1] (setting [4]), the pKi was 7.76. In addition, in assay [2] (setting [5]), the Emax was 63%.

As to `Cc1ccc2oc([C@@H]3CCCN3C)cc2n1.Cl.Cl` [Example 6, 2-(1-methyl-2-(S)-pyrrolidinyl)-5-methylfuro[3,2-b]pyridine dihydrochloride], in assay [1] (setting [4]), the pKi is 8.33. The Emax in assay [2] (setting [5]) came to 68%. Moreover, in assay [3] (Table 1), the “IMR-32 % Inhibition @ 10 μM” value worked out at 4%.

On to `CN1CCC[C@H]1c1cc2ncc(Cl)cc2o1` [Example 8, 6-chloro-2-(1-methyl-2-(S)-pyrrolidinyl)-furo[3,2-b]pyridinedihydrochloride], for which, in assay [1] (setting [4]), the pKi is 7.57. Also, the inhibition at 10 µM in assay [2] (K177, read-out: K177 % Inhibition @ 10 μM) came to 45%. For the same compound, in assay [2] (K177, read-out: K177 % max), the Emax is 3%. In addition, in assay [3] (Table 1), the “IMR-32 % Inhibition @ 10 μM” value was 9% and the IMR-32 % max came to 0%.

As to `CN1CCC[C@H]1c1cc2nc(Cl)ccc2o1` [Example 12, 5-chloro-2-(1-methyl-2-(S)-pyrrolidinyl)-furo[3,2-b]pyridinehydrochloride], the pKi in assay [1] (setting [4]) was 8.39. The Emax in assay [2] (setting [5]) worked out at 41%. Further, the IMR-32 % max in assay [3] (Table 1) was 11%.

Take `Cl.c1cnc2cc(C34CCCN3CCC4)oc2c1` [Example 15, 2-(Hexahydro-1H-7a-pyrrolizinyl)furo[3,2-b]pyridine hydrochloride]: the pKi in assay [1] (setting [4]) is 9.35. In addition, the “binding to the nicotinic acetylcholine receptor (in words)” value in assay [1] was “most potent binders”. The Emax in assay [2] (setting [5]) stood at 9%. The same compound gave an IMR-32 % max in assay [3] (Table 1) of 43%.

For the compound `Cc1ccc2oc(C34CCCN3CCC4)cc2n1` [Example 16, 2-(Hexahydro-1H-7a-pyrrolizinyl)-5-methylfuro[3,2-b]pyridinedihydrochloride], the pKi in assay [1] (setting [4]) is 8.24. In addition, in assay [2] (setting [5]), the Emax worked out at 109%. In assay [3] (Table 1), the “IMR-32 % Inhibition @ 10 μM” value is listed as 10% and the IMR-32 % max is given as 0%.

On to `c1cnc2cc([C@@H]3CC[C@@H]4CCCN43)oc2c1` [Example 21, endo-2-(Hexahydro-1H-3-(S)-pyrrolizinyl)furo[3,2-b]pyridine dihydrochloride], for which the pKi in assay [1] (setting [4]) is 5.48. In assay [3] (Table 1), the “IMR-32 % Inhibition @ (30 μM)” value is recorded as 50% and the IMR-32 % max is reported as 0%.

With `c1cnc2cc(C34CCCN3CCC4)sc2c1` [Example 24, 2-(Hexahydro-1H-7a-pyrrolizinyl)thieno[3,2-b]pyridine hydrochloride], the pKi in assay [1] (setting [4]) was 8.70. The inhibition at 10 µM in assay [2] (setting [6]) came out at 60%. Also, in assay [2] (setting [5]), the Emax amounted to 14%.

For `CN1CCC[C@H]1c1cc2nc(Cl)c(Cl)cc2o1.Cl` [Example 26, 5,6-Dichloro-2-(1-methyl-2-(S)-pyrrolidinyl)furo[3,2-b]pyridine hydrochloride], the pKi in assay [1] (setting [4]) is 9.18. Further, in assay [1], the “binding to the nicotinic acetylcholine receptor (in words)” value is “most potent binders”. In assay [2] (setting [6]), the inhibition at 10 µM came out at 53%. In addition, in assay [2] (setting [5]), the Emax stood at 6%. In addition, in assay [3] (Table 1), the “IMR-32 % Inhibition @ 10 μM” value came out at 38% and the IMR-32 % max worked out at 7%.

Regarding `Brc1ccc2oc([C@@H]3CCCN3)cc2n1.Cl` [Example 28, 5-bromo-2-(2-(S)-parrolidinvy)-furo[3,2-b]pyridine hydrochloride], in assay [1] (setting [4]), the pKi was 8.32. This compound also displayed a K177 % max in assay [2] (Table 1, maximal response, percent relative to 100 μM (S)-nicotine) of 20%.

For the compound `Clc1cnc2cc([C@H]3CCCN3)oc2c1` [Example 31, 6-chloro-2-(2-(R)-pyrrolidinyl)-furo[3,2-b]pyridine hydrochloride], the pKi in assay [1] (setting [4]) was 8.01. Moreover, in assay [2] (setting [6]), the inhibition at 10 µM amounted to 41%. Further, in assay [2] (setting [5]), the Emax was determined as 13%.

Take `Brc1ccc2oc([C@H]3CCCN3)cc2n1` [Example 33, 5-bromo-2-(2-(R)-pyrrolidinyl)-furo[3,2-b]pyridine hydrochloride]: in assay [2] (setting [5]), the Emax stood at 0%. Besides, in assay [3] (Table 1), the “IMR-32 % Inhibition @ 10 μM” value worked out at 8% and the IMR-32 % max is 0%.

As to `Cl.Cl.c1cc2cc([C@H]3CCCN3)oc2cn1` [Example 34, 2-(2-(R)-pyrrolidinyl)furo[2,3-c]pyridine dihydrochloride], in assay [1] (setting [4]), the pKi was 5.77. The “IMR-32 % Inhibition @ 10 μM” value in assay [3] (Table 1) amounted to 2.8%.

With `Clc1ccc2oc([C@H]3CCCN3)cc2n1` [Example 35, 5-chloro-2-(2-(R)-pyrrolidinyl)-furo[3,2-b]pyridine hydrochloride], in assay [1] (setting [4]), the pKi is 8.96. For the same compound, the Emax in assay [2] (setting [5]) is 61%.

On to `Cl.Clc1nc2cc([C@H]3CCCN3)oc2cc1Br` [Example 49, 6-bromo-5-chloro-2-(2-(R)-pyrrolidinyl)furo[3,2-b]pyridine hydrochloride], for which, in assay [1] (setting [4]), the pKi was 8.59. In assay [3] (Table 1), the “IMR-32 % Inhibition @ 10 μM” value was 10% and the IMR-32 % max was 1%.

With `Clc1nc2cc([C@H]3CCCN3)oc2cc1-c1ccccc1` [Example 55, 2-(2-(R)-pyrrolidinyl)-5-chloro-6-phenyl furo[3,2-b]pyridinehydrochloride], the pKi in assay [1] (setting [7]) is 9.80. In addition, the “in vitro binding (in words)” value in assay [1] (Tables 1 and 2) is “potent in vitro binding”. For the same compound, the “binding to the nicotinic acetylcholine receptor (in words)” value in assay [1] is listed as “most potent binders”. The compound further displayed an IMR-32 % max in assay [3] (Table 2) of 32%.

For the compound `Cl.Nc1cccc(-c2cc3oc([C@H]4CCCN4)cc3nc2Cl)c1` [Example 57, 6-(3-aminophenyl)-5-chloro-2-(2-(R)-pyrrolidinyl)furo[3,2-b]pyridine hydrochloride], the pKi in assay [1] (setting [7]) is 9.08. Also, the IMR-32 % max in assay [3] (Table 2) is 22%.
